Measured values from patent US20070213324A1 (priority 2006, published 2007).

Assays:
[1] = test system: pain produced by a sprained ankle; test: Phase II evaluation of pain by visual analogue scale (VAS); assay type: in vivo, human; details: for time from administration to analgesic effect (VAS, significant versus placebo): carisoprodol 200 mg / meloxicam 15 mg, sprained ankle
[2] = cited from earlier work
[3] = test system: platelet aggregation induced by collagen or arachidonic acid; details: cited from earlier work
[4] = test system: production of thromboxane in platelets; details: cited from earlier work
[5] = test system: plasma proteins; details: cited from earlier work
[6] = cited from earlier work; remark: listed apart in the source
[7] = test system: functional recovery of patients with a sprained ankle; test: Phase II functional recovery
[8] = in vivo
[9] = Phase I bioavailability study, single dose and steady state; details: carisoprodol, any condition
Method: Sixty healthy male volunteers participated in the study and were divided into four treatment groups. […] The study was prospective, single-blind, parallel, longitudinal, and comparative with a placebo and with the components of the combination administered separately, with randomized distribution into 4 groups.
A pharmacokinetic study was conducted on day 1 and day 14 so that bioavailability could be clearly identified for single dose and for multiple doses, and so that the bioequivalence of the combined product could be compared to the individual products.

Cc1cnc(NC(=O)C2=C(O)c3ccccc3S(=O)(=O)N2C)s1 [Meloxicam, 4-hydroxy-2-methyl-N-(5-methyl-2-thiazolyl)-2H-1,2-benzothiazine-3-carboxamide-1,1-dioxide]
time from administration to analgesic effect (VAS, significant versus placebo) [1]: up to 360 minutes | time from administration to analgesic effect (VAS, significant versus placebo) ([1]; listed as meloxicam): 360 min | p versus placebo, VAS ([1]; minute 360): 0.021 | solubility in methanol ([2]; methanol): very slightly soluble | solubility in strong acids and bases ([2]; strong acids and bases): higher solubility | solubility in water ([2]; water): practically insoluble in water | inhibition of platelet aggregation [3]: does not inhibit | production of thromboxane in platelets [4]: significantly reduce | bound to plasma proteins [5]: 99.5% | time of second maximum concentration peak ([6]; after administration, enterohepatic circulation): 12 to 14 h | time to steady state ([6]; days of dosage): 5 days | effect of food intake on absorption ([6]; in vivo): not altered | absorbed after administration ([6]; orally): 89% | p versus placebo, functional recovery ([7]; 1440 minutes): 0.037 | time at which functional recovery is statistically different from placebo ([7]; in vivo): 24 h | time from administration to functional recovery (significant versus placebo) ([7]; sprained ankle): 1440 min

CCCC(C)(COC(N)=O)COC(=O)NC(C)C (stereo not shown) [Carisoprodol]
blood pressure [8]: decrease in blood pressure | changes in the physiological tests (reaction time, awareness) [8]: did not produce any changes | sedative effect: MINIMENTAL test before versus after administration [8]: no significant differences | half-life ([6]; in vivo): 8 h | time of initial musculoskeletal relaxant effect ([6]; in vivo): 30 to 45 min | bioequivalence, combined versus on its own [9]: no bioequivalence in any condition
